Columns and labels:
[1] = test system: Collagen-Induced Arthritis; test: Collagen-induced arthritis assay (type II collagen, hindpaw volume) in rats; type: in vivo, inbred Lewis male rats; conditions: oral gavage 5 days per week from day 1 to day 28 or 30
Experimental: This test method is a collagen arthritis assay carried out as follows.
Type II collagen is isolated from bovine articular cartilage by the method of Strawich and Nimni [Biochemistry, 10, 3905 (1971)]. The collagen is dissolved in 0.1M acetic acid and stored at -20° C. Type II collagen solution is diluted to 2 mg./ml. concentration and emulsified thoroughly with an equal volume of incomplete Freund's adjuvant (ICFA). The emulsion containing approximately 0.5 mg. of collagen is injected intradermally on day 0 to groups of 6 inbred Lewis male rats (Charles River Breeders; 170-200 g.) at various sites in the dorsal area. The hindpaw volumes of each rat are measured and recorded three times a week throughout the test period to assess the inflammatory reaction. The test group animals receive compounds under test as suspensions in carboxymethylcellulose vehicle, by oral gavage, 5 days per week (Monday-Friday), beginning on day 1. Control animals receive vehicle without a test compound. At the end of the test (day 28 or 30), the blood of these animals is drawn by cardiac puncture and the serum anti-type II collagen antibody levels are estimated by passive hemagglutination technique, using glutaraldehyde treated sheep red cells, to which type II collagen is conjugated [Avrameas et al., Immunochemistry, 6, 67 (1969); Andriopoulos et al., Arth. Rheum., 19, 613 (1976)]. The cellular response or delayed-type hypersensitivity response to type II collagen is measured by the radiometric ear index assay [Kostiala, Immunology, 33, 561 (1977)]. In certain experiments, the bone damage occurring because of immunization with type II collagen and the effects of drugs are determined from the radiographs of the hindpaws of two or three representative animals from each group. Injections of ICFA without collagen II were employed to some rats as a negative control; these rats received only […] vehicle during the test.
The % inhibition is calculated according to the following formula: [formula] where Vt is the hindpaw volume of a compound-treated animal (test group), Vc is the hindpaw volume of a non-compound-treated animal ([…] vehicle only-the control group), the Vv is the hindpaw volume of a vehicle ([…]) treated animal which received ICFA with no collagen II (negative control group).

angiogenesis factor = test: Tumor angiogenesis inhibition in vivo: serpentine vessels induced by lysosomal-mitochondrial preparation from 3683 Morris hepatoma in mice; design: species or system mice (SPF/ND4 female); conditions: Mus musculus, ip, mice sacrificed after 24 hours, average number of serpentine vessels vs control
Experimental: Lysosomal-mitochondrial pellets containing angiogenesis factor are prepared from 3683 Morris hepatoma. The pellet is diluted with 7-8 ml. of 15% ficoll. At this dilution, 8-10 serpentine vessels are usually produced per 0.2 cc. injection as described below for the control group.
Next, 15 SPF/ND4 female mice weighing 20-22 g. are shaved on the left side and then divided into three groupss of five each. One group (drug group) is injected subcutaneously and laterally with 0.2 cc. of the lysosomal-mitochondrial preparation diluted with 15% ficoll. This group of mice is then dosed individually by the intraperitoneal route with 0.5 cc. of a solution or suspension in a standard vehicle containing the compound under test, usually at an initial dose level of 300 mg./kg. If this dose level is toxic, two-fold dilutions are made until all mice survive a single dose. The second group of mice (control group) is injected subcutaneously and laterally with 0.2 cc. of the lysosomal-mitochondrial suspension diluted with ficoll and dosed intraperitoneally with 0.5 cc. of the vehicle alone. The third group of mice (negative control) is injected with the ficoll solution only (without the lysosomal-mitochondrial pellet) without treatment with compound or vehicle. The mice are sacrificed after 24 hours. Each mouse is placed on its side on a dissecting board with the shaved side up. Starting at the flank, the skin is cut straight to the back of the animal. A similar cut is made behind the front leg. The skin is then cut along the back making a flap of about one inch by two inches. The skin is carefully separated from the connective tissue by using forceps and a scalpel. The skin flap is then laid back exposing the lysosomal-mitochondrial implant which is attached to the skin. The skin flap is gently flattened out and with the use of a binocular dissecting scope, serpentine vessels are observed around the lysosomal-mitochondrial implant and their number counted. All observations of the number of serpentine vessels are made at the same power of the microscope (1×). The average number of serpentine vessels for each group is calculated. The percent inhibition is then calculated according to the following equation. [formula] where sv=averge number of serpentine vessels.
If the negative control group described above has any serpentine vessels, the test is invalid due to contamination of the ficoll solution.

Compound	Inhibition of Collagen-Induced Arthritis, % inhibition ([1]; 25 mg./kg.)	inhibition in vivo at 25 mg/kg (angiogenesis factor)	Inhibition of Collagen-Induced Arthritis, % inhibition ([1]; 15 mg./kg.)
O=C1OC2C(O)COC2(O)C1(O)Cc1ccc(F)cc1 (stereo not drawn) [Example 1, [3R-(3aα,6α,6aα)]-tetrahydro-3,3a,6-trihydroxy-3-[(4-fluorophenyl)methyl]furo[3,2-b]furan-2(3H)-one]	94%	62%	
O=C1OC2C(O)COC2(O)C1(O)Cc1cccc(Br)c1 (stereo not drawn) [Example 2]		45%	
O=C1OC2C(O)COC2(O)C1(O)Cc1cccc(Cl)c1 (stereo not drawn) [Example 3]		55%	100%
O=C1OC2C(O)COC2(O)C1(O)Cc1ccccc1Cl (stereo not drawn) [Example 4]		38%	
O=C1OC2C(O)COC2(O)C1(O)Cc1ccc(Cl)cc1 (stereo not drawn) [Example 5]		52%	81%
O=C1OC2C(O)COC2(O)C1(O)Cc1ccccc1F (stereo not drawn) [Example 6]		33%	
O=C1OC2C(O)COC2(O)C1(O)Cc1cccc(F)c1 (stereo not drawn) [Example 7]	100%	57%	
O=C1OC2C(O)COC2(O)C1(O)Cc1ccc(C(F)(F)F)cc1 (stereo not drawn) [Example 8]		55%	
Cc1cccc(CC2(O)C(=O)OC3C(O)COC32O)c1 (stereo not drawn) [Example 9]		48%	
Cc1ccccc1CC1(O)C(=O)OC2C(O)COC21O (stereo not drawn) [Example 10]		48%	
Cc1ccc(CC2(O)C(=O)OC3C(O)COC32O)cc1 (stereo not drawn) [Example 11]		62%	94%
Cc1ccc(C)c(CC2(O)C(=O)OC3C(O)COC32O)c1 (stereo not drawn) [Example 12]	23%	58%	
